Biological target: T1, Dopamine beta hydroxylase (Homo sapiens, UniProt P09172)
T1 construct: 125 μl of plasma; tissue Instituto Português do Sangue Transplantação; host or cells: human plasma from healthy donors
T1 sequence (P09172 40-617 limits assumed): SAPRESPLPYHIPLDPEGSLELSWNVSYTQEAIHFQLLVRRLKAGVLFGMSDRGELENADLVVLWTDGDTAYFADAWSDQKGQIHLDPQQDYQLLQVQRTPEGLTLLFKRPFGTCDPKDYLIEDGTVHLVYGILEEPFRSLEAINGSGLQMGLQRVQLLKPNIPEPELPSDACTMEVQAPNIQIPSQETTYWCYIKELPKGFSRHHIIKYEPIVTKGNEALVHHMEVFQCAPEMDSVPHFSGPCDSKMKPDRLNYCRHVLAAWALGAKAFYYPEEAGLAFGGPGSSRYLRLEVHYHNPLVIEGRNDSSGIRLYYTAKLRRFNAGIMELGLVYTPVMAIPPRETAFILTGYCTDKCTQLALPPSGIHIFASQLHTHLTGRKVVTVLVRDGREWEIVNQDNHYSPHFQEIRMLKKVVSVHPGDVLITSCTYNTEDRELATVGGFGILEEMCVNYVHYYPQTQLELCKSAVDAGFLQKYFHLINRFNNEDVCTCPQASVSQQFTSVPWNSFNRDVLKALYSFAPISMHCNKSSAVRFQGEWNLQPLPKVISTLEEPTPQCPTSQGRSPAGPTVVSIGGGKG
Test: Dopamine beta hydroxylase activity in human plasma
Type: biochemical
Settings: for Plasma (0.1 μM), activity in % of control: inhibitor 0.1 μM; for Plasma (1 μM), activity in % of control: inhibitor 1 μM; for Plasma (0.01 μM), activity in % of control: inhibitor 0.01 μM
Method in brief: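 Healthy-donor human plasma pre-incubated 10 min at 37° C with compound at final 10, 100 or 1000 nM in pH 5.0 acetate buffer with ascorbate, fumarate, pargyline, N-ethylmaleimide, catalase and copper sulfate. Tyramine substrate then added for 45 min; octopamine formed was isolated by SCX cartridge, periodate-converted and read at 330 nm; activity given as % control.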

| Plasma (0.1 μM), activity in % of control | Plasma (1 μM), activity in % of control | Plasma (0.01 μM), activity in % of control | SMILES |
| --- | --- | --- | --- |
| 81.0 % of control | 19.8 % of control |  | O=C(O)Cc1[nH]c(=S)n2c1C[C@H](c1c(F)cccc1F)C2 [Example 18, (R)-2-(6-(2,6-difluorophenyl)-3-thioxo-2,5,6,7-tetrahydro-3H-pyrrolo[1,2-c]imidazol-1-yl)acetic Acid] |
| 74.9 % of control |  | 95.3 % of control | Fc1ccc(Br)c(F)c1[C@H]1Cc2c(CCN[C@@H]3CCOC3)[nH]c(=S)n2C1 [Example 176, (R)-6-(3-bromo-2,6-difluorophenyl)-1-(2-(((R)-tetrahydrofuran-3-yl)amino)ethyl)-2,5,6,7-tetrahydro-3H-pyrrolo[1,2-c]imidazole-3-thione] |
| 67.7 % of control | 16.7 % of control |  | N[C@@H](CNC(=O)Cc1[nH]c(=S)n2c1C[C@H](c1c(F)c(F)cc(F)c1F)C2)C(=O)O [Example 31, (S)-2-amino-3-(2-((R)-6-(2,3,5,6-tetrafluorophenyl)-3-thioxo-3,5,6,7-tetrahydro-2H-pyrrolo[1,2-c]imidazol-1-yl)acetamido)propanoic acid] |
| 43.7 % of control |  | 79.7 % of control | Cn1c(CC(=O)NC2COC2)c2n(c1=S)C[C@H](c1c(F)ccc(F)c1F)C2 [Example 432, (S)-2-(2-methyl-3-thioxo-6-(2,3,6-trifluorophenyl)-2,5,6,7-tetrahydro-3H-pyrrolo[1,2-c]imidazol-1-yl)-N-(oxetan-3-yl)acetamide] |
| 22.7 % of control |  | 73.5 % of control | Cn1c(CC(=O)NC2CCCC2)c2n(c1=S)C[C@@]1(c3cc(Br)ccc3F)C[C@@H]21 [Example 272, 2-((5aS,6aR)-5a-(5-bromo-2-fluorophenyl)-2-methyl-3-thioxo-2,3,5,5a,6,6a-hexahydrocyclopropa[3,4]pyrrolo[1,2-c]imidazol-1-yl)-N-cyclopentylacetamide] |
| 28.9 % of control |  | 86.6 % of control | Cn1c(CC(=O)NC2CCCC2)c2n(c1=S)C[C@@]1(c3cc(Cl)ccc3F)C[C@@H]21 [Example 273, 2-((5aS,6aR)-5a-(5-chloro-2-fluorophenyl)-2-methyl-3-thioxo-2,3,5,5a,6,6a-hexahydrocyclopropa[3,4]pyrrolo[1,2-c]imidazol-1-yl)-N-cyclopentylacetamide] |
| 8.9 % of control |  | 51.7 % of control | Cn1c(CC(=O)N2CCC[C@H]2CO)c2n(c1=S)C[C@H](c1c(F)ccc(Br)c1F)C2 [Example 241, 2-((S)-6-(3-bromo-2,6-difluorophenyl)-2-methyl-3-thioxo-2,5,6,7-tetrahydro-3H-pyrrolo[1,2-c]imidazol-1-yl)-1-((S)-2-(hydroxymethyl)pyrrolidin-1-yl)ethan-1-one] |
| 21.6 % of control |  | 87.2 % of control | Cn1c(CC(=O)N2CCCCC2)c2n(c1=S)C[C@@]1(c3cc(Cl)ccc3F)C[C@@H]21 [Example 311, 2-((5aS,6aR)-5a-(5-chloro-2-fluorophenyl)-2-methyl-3-thioxo-2,3,5,5a,6,6a-hexahydrocyclopropa[3,4]pyrrolo[1,2-c]imidazol-1-yl)-1-(piperidin-1-yl)ethan-1-one] |
| 7.2 % of control |  | 42.7 % of control | O=C(NCc1[nH]c(=S)n2c1C[C@@H](c1c(F)ccc(Cl)c1F)C2)c1cccnc1 [Example 223, (S)—N-((6-(3-chloro-2,6-difluorophenyl)-3-thioxo-2,5,6,7-tetrahydro-3H-pyrrolo[1,2-c]imidazol-1-yl)methyl)nicotinamide] |
| 34.2 % of control |  | 78.1 % of control | Cn1c(CC(=O)NCC2CCOCC2)c2n(c1=S)C[C@H](c1c(F)ccc(F)c1F)C2 [Example 427, (S)-2-(2-methyl-3-thioxo-6-(2,3,6-trifluorophenyl)-2,5,6,7-tetrahydro-3H-pyrrolo[1,2-c]imidazol-1-yl)-N-((tetrahydro-2H-pyran-4-yl)methyl)acetamide] |
| 68.8 % of control |  | 93.8 % of control | O=C(Cc1[nH]c(=S)n2c1C[C@H](c1c(F)ccc(Br)c1F)C2)N[C@@H]1CCOC1 [Example 116, 2-((R)-6-(3-bromo-2,6-difluorophenyl)-3-thioxo-2,5,6,7-tetrahydro-3H-pyrrolo[1,2-c]imidazol-1-yl)-N—((R)-tetrahydrofuran-3-yl)acetamide] |
| 21.3 % of control |  | 84.2 % of control | Cn1c(CC(=O)Nc2ccccn2)c2n(c1=S)C[C@H](c1c(F)ccc(Cl)c1F)C2 [Example 258, (S)-2-(6-(3-chloro-2,6-difluorophenyl)-2-methyl-3-thioxo-3,5,6,7-tetrahydro-2H-pyrrolo[1,2-c]imidazol-1-yl)-N-(pyridin-2-yl)acetamide] |
| 43.7 % of control |  | 89.2 % of control | C[C@@H](NCCc1[nH]c(=S)n2c1C[C@H](c1c(F)ccc(Br)c1F)C2)C1CCCCC1 [Example 184, (R)-6-(3-bromo-2,6-difluorophenyl)-1-(2-(((R)-1-cyclohexylethyl)amino)ethyl)-2,5,6,7-tetrahydro-3H-pyrrolo[1,2-c]imidazole-3-thione] |
| 30.8 % of control | 3.3 % of control |  | O=C(O)Cc1[nH]c(=S)n2c1C[C@@H](c1c(F)ccc(Br)c1F)C2 [Example 12, (S)-2-(6-(3-bromo-2,6-difluorophenyl)-3-thioxo-2,5,6,7-tetrahydro-3H-pyrrolo[1,2-c]imidazol-1-yl)acetic Acid] |
| 73.7 % of control |  | 88.2 % of control | Cn1c(CC(=O)N2CCC[C@@H]2C(F)(F)F)c2n(c1=S)C[C@@H](c1c(F)ccc(F)c1F)C2 [Example 344, 2-((R)-2-methyl-3-thioxo-6-(2,3,6-trifluorophenyl)-2,5,6,7-tetrahydro-3H-pyrrolo[1,2-c]imidazol-1-yl)-1-((R)-2-(trifluoromethyl)pyrrolidin-1-yl)ethan-1-one] |
| 46.3 % of control | 8.1 % of control |  | OCCc1[nH]c(=S)n2c1C[C@H](c1c(F)c(F)cc(F)c1F)C2 [Example 172, (R)-1-(2-hydroxyethyl)-6-(2,3,5,6-tetrafluorophenyl)-2,5,6,7-tetrahydro-3H-pyrrolo[1,2-c]imidazole-3-thione] |
| 24.1 % of control |  | 79.9 % of control | Cn1c(CC(=O)NCC2CCOCC2)c2n(c1=S)C[C@@H](c1c(F)c(F)cc(F)c1F)C2 [Example 397, (R)-2-(2-methyl-6-(2,3,5,6-tetrafluorophenyl)-3-thioxo-2,5,6,7-tetrahydro-3H-pyrrolo[1,2-c]imidazol-1-yl)-N-((tetrahydro-2H-pyran-4-yl)methyl)acetamide] |
| 32.0 % of control |  | 93.4 % of control | CN(C(=O)Cc1c2n(c(=S)n1C)C[C@@H](c1c(F)ccc(F)c1F)C2)C1CCOCC1 [Example 372, (R)—N-methyl-2-(2-methyl-3-thioxo-6-(2,3,6-trifluorophenyl)-2,5,6,7-tetrahydro-3H-pyrrolo[1,2-c]imidazol-1-yl)-N-(tetrahydro-2H-pyran-4-yl)acetamide] |
| 90.8 % of control | 28.9 % of control |  | O=C(Cc1[nH]c(=S)n2c1C[C@H](c1c(F)c(F)cc(F)c1F)C2)NCCO [Example 72, (R)—N-(2-hydroxyethyl)-2-(6-(2,3,5,6-tetrafluorophenyl)-3-thioxo-2,5,6,7-tetrahydro-3H-pyrrolo[1,2-c]imidazol-1-yl)acetamide] |
| 87.1 % of control |  | 103.3 % of control | Cn1c(CCC(N)=O)c2n(c1=S)C[C@@H](c1c(F)cccc1F)C2 [Example 263, (R)-3-(6-(2,6-difluorophenyl)-2-methyl-3-thioxo-2,5,6,7-tetrahydro-3H-pyrrolo[1,2-c]imidazol-1-yl)propanamide] |

| SMILES | Plasma (0.1 μM), activity in % of control | Plasma (1 μM), activity in % of control | Plasma (0.01 μM), activity in % of control |
| --- | --- | --- | --- |
| CS(=O)(=O)NC(=O)Cc1[nH]c(=S)n2c1C[C@H](c1c(F)c(F)cc(F)c1F)C2 [Example 23, (R)—N-(methylsulfonyl)-2-(6-(2,3,5,6-tetrafluorophenyl)-3-thioxo-3,5,6,7-tetrahydro-2H-pyrrolo[1,2-c]imidazol-1-yl)acetamide] | 56.6 % of control | 8.8 % of control |  |

Reference: patent US11434242B2, “Dopamine-b-hydroxylase inhibitors” (BIAL-PORTELA & Cª, S.A., priority 2017, dated 2022)
